These are literature values, as cited in patent publication US10543172B2, “Econazole composition and methods of treatment therewith” (PARAGON NORDIC AB, priority 2010, dated 2020).

This series relates to dermatophytes and yeasts. The settings on record: Liao et al., Yao Xue Xue Bao 28(1):22-7 (1993).

In the case of `Clc1ccc(CO[C@@H](Cn2ccnc2)c2ccc(Cl)cc2Cl)cc1` [(R)-(−)-econazole], the “antifungal activity of stereoisomer” value is on record as “greater antifungal activity”.
